The NIST ThermoML archive (doi:10.1016/j.jct.2016.09.027)
Numbers after ± are expanded uncertainties.

Test: mn = molality of the nth substance listed, in mol/kg
Settings: 100 kPa, Liquid; for speed of sound: Frequency=3 MHz, Sing-around technique in a fixed-path interferometer; for mass density: Vibrating tube method

C[C@H]1COc2c(N3CCN(C)CC3)c(F)cc3c(=O)c(C(=O)O)cn1c23 [levofloxacin] + O
Settings | mass density, 288.15 K [kg/m3] | mass density, 293.15 K [kg/m3] | mass density, 298.15 K [kg/m3] | mass density, 303.15 K [kg/m3] | mass density, 308.15 K [kg/m3] | speed of sound, 288.15 K [m/s] | speed of sound, 293.15 K [m/s] | speed of sound, 298.15 K [m/s] | speed of sound, 303.15 K [m/s] | speed of sound, 308.15 K [m/s]
m1 = 0.005 | 1001.5 ± 2 | 1000.61 ± 2 | 999.444 ± 2 | 998.037 ± 2 | 996.415 ± 2 | 1467.4 ± 1.6 | 1483.2 ± 1.6 | 1497.3 ± 1.6 | 1509.7 ± 1.6 | 1520.3 ± 1.6
m1 = 0.01 | 1002.04 ± 2 | 1001.14 ± 2 | 999.956 ± 2 | 998.556 ± 2 | 996.926 ± 2 | 1468.3 ± 1.6 | 1484 ± 1.6 | 1498.1 ± 1.6 | 1510.4 ± 1.6 | 1521 ± 1.6
m1 = 0.03 | 1004.52 ± 2 | 1003.59 ± 2 | 1002.39 ± 2 | 1000.96 ± 2 | 999.305 ± 2 | 1471.4 ± 1.6 | 1487.2 ± 1.6 | 1500.9 ± 1.6 | 1513 ± 1.6 | 1523.4 ± 1.6
